Experiments:
Type in all cases: in vivo, dog (Labrador Retrievers)
[1] = tested on: T cells; test: Lymphocyte blastogenesis (3H-thymidine), T cell mitogenic stimulation of PBMCs from dogs fed mannoheptulose diet
Text: (§1) Phytohaemagglutinin (PHA), the lectin extract from the red kidney bean (Phaseolus vulgaris), contains potent, T-cell mitogenic activity (Hammerstrom, S. et al. (1982) Proc. Nall. Acad. Sci. USA 79, 1611-1615). Pokeweed mitogen (PWM), derived from Phytolacca Americana, is a B cell mitogen (Schreck et al., Annals of Clinical and Laboratory Science, Vol 12, Issue 6, 455-462). Together these three mitogens are used to stimulate immune cells in vitro in the lymphocyte blastogenesis assay, a well accepted indicator of immune response in vivo. Many studies have shown this assay to be responsive to the age-associated decline in immune system response (Goldrosen et al., 1977—Journal of surgical oncology 9: 229-234). A lower proliferative capacity indicates the immune cells cannot become activated and multiply as efficiently (a key step in the process of mounting an effective immune response).
(§2) Eighty (n=80) Labrador Retrievers were randomized by age, gender, and littermate to receive either a complete and nutritionally balanced control diet that is similar to Eukanuba Senior Large Breed or an experimental diet that is identical to the control diet except for the inclusion of mannoheptulose as disclosed below. The dogs were split into two study groups.
Study 1: A total of 39 older Labrador Retrievers are fed a nutritionally-balanced composition providing mannoheptulose at levels of 0 or about 2 mg/kg of body weight of the dog. Average age of the dogs (12 neutered males, 27 spayed females) at the start of a 4-year study is 6.7 years with a range of 5.1 to 8.2 years of age for the youngest and oldest dog within the cohort, respectively. The control composition is fed as a nutritionally-balanced composition, and it contains no mannoheptulose (0 mg/kg), avocado extract, avocado meal, or avocado concentrate. The test composition is the nutritionally-balanced control composition formulated with avocado extract, avocado meal, or avocado concentrate to provide mannoheptulose at a dose of about 2 mg/kg body weight of the dog. […]

[2] = tested on: CD18+ immune cells; test: Flow cytometry of CD18+ immune cells in blood of dogs fed mannoheptulose diet; conditions: for CD18+ immune cells: analyzed by age
Text: Eighty (n=80) Labrador Retrievers were randomized by age, gender, and littermate to receive either a complete and nutritionally balanced control diet that is similar to Eukanuba Senior Large Breed or an experimental diet that is identical to the control diet except for the inclusion of mannoheptulose as disclosed below. The dogs were split into two study groups. Study 1: A total of 39 older Labrador Retrievers are fed a nutritionally-balanced composition providing mannoheptulose at levels of 0 or about 2 mg/kg of body weight of the dog. Average age of the dogs (12 neutered males, 27 spayed females) at the start of a 4-year study is 6.7 years with a range of 5.1 to 8.2 years of age for the youngest and oldest dog within the cohort, respectively. The control composition is fed as a nutritionally-balanced composition, and it contains no mannoheptulose (0 mg/kg), avocado extract, avocado meal, or avocado concentrate. The test composition is the nutritionally-balanced control composition formulated with avocado extract, avocado meal, or avocado concentrate to provide mannoheptulose at a dose of about 2 mg/kg body weight of the dog. Older dogs are fed one-half their daily allotment of food at 0730 and 1430 each day. Dogs were fed to maintain body weight and body composition score (BCS) within a 2-4 score range. If food adjustments were made, they were made on a quarterly basis. All dogs were fasted overnight and morning meals were withheld until blood collections could be conducted for all immune measurements. Water is provided ad lib. Study 2: A total of 41 younger Labrador Retrievers are fed a nutritionally-balanced composition providing mannoheptulose at levels of 0 or about 2 mg/kg of body weight of the dog. Average age of the dogs (12 neutered males, 29 spayed females) at the start of the 36-month feeding study is 4.0 years with a range of 2.0 to 6.1 years of age for the youngest and oldest dog within the cohort, respectively. […] Cell populations were analyzed on a FACScan Flow Cytometer (Becton Dickinson) using CellQuest Pro Software.

[3] = tested on: 8-OHdG; test: Serum 8-OHdG ELISA (DNA oxidation) in dogs fed mannoheptulose diet
Text: 8-Oxo-2′-deoxyguanosine (8-OHdG) is an oxidized derivative of deoxyguanosine. 8-OHdG is one of the major products of DNA oxidation. As part of the immune response, T and B cells must proliferate (become activated and divide). A key step to robust proliferation is DNA replication. If cells have damaged DNA or must repair DNA, this crucial step can be hindered. […] By lowering DNA damage in the mannoheptulose fed dogs, immune cell replication would be facilitated, helping to enable a key step in the activation cascade of the immune system. Eighty (n=80) Labrador Retrievers were randomized by age, gender, and littermate to receive either a complete and nutritionally balanced control diet that is similar to Eukanuba Senior Large Breed or an experimental diet that is identical to the control diet except for the inclusion of mannoheptulose as disclosed below. The dogs were split into two study groups. Study 1: A total of 39 older Labrador Retrievers are fed a nutritionally-balanced composition providing mannoheptulose at levels of 0 or about 2 mg/kg of body weight of the dog. […] Amount of 8-OHDG is quantified using a commercially available ELISA kit from Oxis Health Products, catalog #21026. […] Add […] of the Stop Solution, mix, wait 3 minutes and read the absorbance at 450 nm.

[4] = tested on: B cells; test: Lymphocyte blastogenesis (3H-thymidine), B cell mitogenic stimulation of PBMCs from dogs fed mannoheptulose diet
Text: as §1
as §2, with “groups. […]” for “groups.”

[5] = summary table, aging dogs consuming diet with MH, direction of change

O=C(CO)[C@@H](O)[C@@H](O)[C@H](O)[C@H](O)CO [mannoheptulose]
T cell mitogenic stimulation to ConA ([1]; dog groups 1 and 2, mannoheptulose diet about 2 mg/kg vs control diet, FIGS. 3 and 4): either a statistical trend or a statistical improvement in T cell mitogenic stimulation to ConA | T cell mitogenic stimulation to PHA ([1]; dog groups 1 and 2, mannoheptulose diet about 2 mg/kg vs control diet, FIGS. 5 and 6): either a statistical trend or a statistical improvement in T cell mitogenic stimulation to PHA | T cell proliferation [1, 5]: ↑ | CD18+ immune cells ([2]; dog group 1 (older dogs), test diet delivering 2 mg mannoheptulose per kg body weight vs diet matched controls, FIG. 1): significant attenuation in the increase of CD18+ immune cells | CD18+ immune cells ([2]; dog group 2 (younger dogs), test diet with mannoheptulose about 2 mg/kg vs diet matched controls, FIG. 2): trend for attenuation in the increase of CD18+ immune cells | % CD18 + cells [2, 5]: ↓ | serum 8-OHdG ([3]; dog group 1, mannoheptulose diet vs control diet, FIG. 9): significantly lower serum 8-OHdG | DNA damage [3, 5]: ↓ | B cell mitogenic stimulation to PWM ([4]; dog groups 1 and 2, mannoheptulose diet about 2 mg/kg vs control diet, FIGS. 7 and 8): either a statistical trend or a statistical improvement in B cell mitogenic stimulation to PWM | B cell proliferation [4, 5]: ↑
